Values of other authors, collected in patent US5439687A, “Dosage forms having zero-order dihydropyridine calcium antagonist release” (priority 1992, dated 1995).

Details: rapid influx rate with high plasma level peaks

In the case of `COC(=O)C1=C(C)NC(C)=C(C(=O)OC)C1c1ccccc1[N+](=O)[O-]` [nifedipine], the “Side-effect rate and blood pressure lowering effectiveness” value is given as “associated with an increased side-effect rate (tachycardia) and reduced effectiveness in lowering blood pressure”.
